Source: the NIST ThermoML archive (doi:10.1016/j.jct.2016.12.015)
Numbers after ± are expanded uncertainties.

Assay: molar heat capacity at constant pressure
Conditions: 101.33 kPa, Crystal, Small (less than 1 g) adiabatic calorimetry

C[C@H]1C[C@@H]2[C@H]([C@@H](O)C[C@@]3(C)[C@H]2CC[C@]3(O)C(=O)CO)[C@@]2(C)C=CC(=O)C=C12 [Methylprednisolone]
molar heat capacity at constant pressure (5 K): 0.981 ± 0.052 J/K/mol | molar heat capacity at constant pressure (6.33 K): 2.001 ± 0.091 J/K/mol | molar heat capacity at constant pressure (6.49 K): 2.141 ± 0.096 J/K/mol | molar heat capacity at constant pressure (6.65 K): 2.26 ± 0.1 J/K/mol | molar heat capacity at constant pressure (6.78 K): 2.357 ± 0.1 J/K/mol | molar heat capacity at constant pressure (6.95 K): 2.495 ± 0.11 J/K/mol | molar heat capacity at constant pressure (7.1 K): 2.55 ± 0.11 J/K/mol | molar heat capacity at constant pressure (7.24 K): 2.74 ± 0.12 J/K/mol | molar heat capacity at constant pressure (7.49 K): 3.021 ± 0.13 J/K/mol | molar heat capacity at constant pressure (7.82 K): 3.43 ± 0.15 J/K/mol | molar heat capacity at constant pressure (8.13 K): 3.81 ± 0.17 J/K/mol | molar heat capacity at constant pressure (8.44 K): 4.275 ± 0.18 J/K/mol | molar heat capacity at constant pressure (8.75 K): 4.579 ± 0.2 J/K/mol | molar heat capacity at constant pressure (9.05 K): 4.913 ± 0.21 J/K/mol | molar heat capacity at constant pressure (9.36 K): 5.269 ± 0.23 J/K/mol | molar heat capacity at constant pressure (9.69 K): 5.653 ± 0.24 J/K/mol | molar heat capacity at constant pressure (10 K): 6.06 ± 0.26 J/K/mol | molar heat capacity at constant pressure (10.01 K): 6.058 ± 0.26 J/K/mol | molar heat capacity at constant pressure (10.33 K): 6.528 ± 0.28 J/K/mol | molar heat capacity at constant pressure (10.66 K): 6.921 ± 0.29 J/K/mol | molar heat capacity at constant pressure (11 K): 7.373 ± 0.31 J/K/mol | molar heat capacity at constant pressure (11.38 K): 7.86 ± 0.33 J/K/mol | molar heat capacity at constant pressure (11.77 K): 8.373 ± 0.35 J/K/mol | molar heat capacity at constant pressure (12.06 K): 8.762 ± 0.37 J/K/mol | molar heat capacity at constant pressure (12.88 K): 9.96 ± 0.42 J/K/mol | molar heat capacity at constant pressure (14.16 K): 11.96 ± 0.5 J/K/mol | molar heat capacity at constant pressure (15 K): 13.31 ± 0.55 J/K/mol | molar heat capacity at constant pressure (15.44 K): 14.15 ± 0.59 J/K/mol | molar heat capacity at constant pressure (16.74 K): 16.54 ± 0.68 J/K/mol | molar heat capacity at constant pressure (18.07 K): 19.18 ± 0.79 J/K/mol | molar heat capacity at constant pressure (19.43 K): 21.92 ± 0.9 J/K/mol | molar heat capacity at constant pressure (20 K): 22.8 ± 0.94 J/K/mol | molar heat capacity at constant pressure (22.43 K): 28.16 ± 0.37 J/K/mol | molar heat capacity at constant pressure (25 K): 33.3 ± 0.42 J/K/mol | molar heat capacity at constant pressure (25.22 K): 33.67 ± 0.42 J/K/mol | molar heat capacity at constant pressure (28.44 K): 39.96 ± 0.48 J/K/mol | molar heat capacity at constant pressure (30 K): 42.63 ± 0.48 J/K/mol | molar heat capacity at constant pressure (31.97 K): 46.03 ± 0.52 J/K/mol | molar heat capacity at constant pressure (35 K): 51.54 ± 0.58 J/K/mol | molar heat capacity at constant pressure (35.53 K): 52.34 ± 0.58 J/K/mol | molar heat capacity at constant pressure (39.09 K): 58.93 ± 0.65 J/K/mol | molar heat capacity at constant pressure (40 K): 60.39 ± 0.67 J/K/mol | molar heat capacity at constant pressure (42.67 K): 65.35 ± 0.4 J/K/mol | molar heat capacity at constant pressure (45 K): 69.3 ± 0.42 J/K/mol | molar heat capacity at constant pressure (46.26 K): 71.33 ± 0.43 J/K/mol | molar heat capacity at constant pressure (49.86 K): 77.8 ± 0.47 J/K/mol | molar heat capacity at constant pressure (50 K): 78.27 ± 0.47 J/K/mol | molar heat capacity at constant pressure (53.45 K): 84.8 ± 0.5 J/K/mol | molar heat capacity at constant pressure (57.05 K): 91.01 ± 0.54 J/K/mol | molar heat capacity at constant pressure (60 K): 96.39 ± 0.57 J/K/mol | molar heat capacity at constant pressure (60.67 K): 97.6 ± 0.57 J/K/mol | molar heat capacity at constant pressure (64.3 K): 104 ± 0.6 J/K/mol | molar heat capacity at constant pressure (67.91 K): 110.8 ± 0.6 J/K/mol | molar heat capacity at constant pressure (70 K): 114.2 ± 0.7 J/K/mol | molar heat capacity at constant pressure (71.53 K): 116.8 ± 0.7 J/K/mol | molar heat capacity at constant pressure (75.17 K): 122.4 ± 0.7 J/K/mol | molar heat capacity at constant pressure (78.82 K): 129.7 ± 0.7 J/K/mol | molar heat capacity at constant pressure (80 K): 131.5 ± 0.8 J/K/mol | molar heat capacity at constant pressure (81.9 K): 134.6 ± 0.8 J/K/mol | molar heat capacity at constant pressure (82.48 K): 136 ± 0.8 J/K/mol | molar heat capacity at constant pressure (86.1 K): 142.8 ± 0.8 J/K/mol | molar heat capacity at constant pressure (86.12 K): 142.4 ± 0.8 J/K/mol | molar heat capacity at constant pressure (89.32 K): 147.8 ± 0.8 J/K/mol | molar heat capacity at constant pressure (90 K): 149.3 ± 0.8 J/K/mol | molar heat capacity at constant pressure (92.91 K): 154.1 ± 0.8 J/K/mol | molar heat capacity at constant pressure (96.5 K): 159.9 ± 0.9 J/K/mol | molar heat capacity at constant pressure (100 K): 165.9 ± 0.9 J/K/mol | molar heat capacity at constant pressure (100.08 K): 165.8 ± 0.9 J/K/mol | molar heat capacity at constant pressure (103.66 K): 171.9 ± 0.9 J/K/mol | molar heat capacity at constant pressure (107.23 K): 178 ± 1 J/K/mol | molar heat capacity at constant pressure (110 K): 182.1 ± 1 J/K/mol | molar heat capacity at constant pressure (110.81 K): 183.4 ± 1 J/K/mol | molar heat capacity at constant pressure (114.37 K): 188.6 ± 1 J/K/mol | molar heat capacity at constant pressure (117.93 K): 195.4 ± 1 J/K/mol | molar heat capacity at constant pressure (120 K): 198.1 ± 1.1 J/K/mol | molar heat capacity at constant pressure (121.48 K): 200.9 ± 1.1 J/K/mol | molar heat capacity at constant pressure (125.04 K): 206.7 ± 1.1 J/K/mol | molar heat capacity at constant pressure (128.59 K): 212 ± 1.1 J/K/mol | molar heat capacity at constant pressure (130 K): 213.9 ± 1.1 J/K/mol | molar heat capacity at constant pressure (132.14 K): 217.1 ± 1.2 J/K/mol | molar heat capacity at constant pressure (135.68 K): 222.2 ± 1.2 J/K/mol | molar heat capacity at constant pressure (139.22 K): 228.2 ± 1.2 J/K/mol | molar heat capacity at constant pressure (140 K): 229.6 ± 1.2 J/K/mol | molar heat capacity at constant pressure (142.74 K): 233.6 ± 1.2 J/K/mol | molar heat capacity at constant pressure (146.27 K): 238.8 ± 1.3 J/K/mol | molar heat capacity at constant pressure (149.79 K): 244.2 ± 1.3 J/K/mol | molar heat capacity at constant pressure (150 K): 245 ± 1.3 J/K/mol | molar heat capacity at constant pressure (153.3 K): 250 ± 1.3 J/K/mol | molar heat capacity at constant pressure (156.82 K): 254.9 ± 1.3 J/K/mol | molar heat capacity at constant pressure (160 K): 260.2 ± 1.4 J/K/mol | molar heat capacity at constant pressure (160.33 K): 260.9 ± 1.4 J/K/mol | molar heat capacity at constant pressure (163.83 K): 266.4 ± 1.4 J/K/mol | molar heat capacity at constant pressure (167.33 K): 271.7 ± 1.4 J/K/mol | molar heat capacity at constant pressure (170 K): 275.3 ± 1.4 J/K/mol | molar heat capacity at constant pressure (170.82 K): 276.8 ± 1.4 J/K/mol | molar heat capacity at constant pressure (174.31 K): 282.2 ± 1.5 J/K/mol | molar heat capacity at constant pressure (177.79 K): 287.2 ± 1.5 J/K/mol | molar heat capacity at constant pressure (180 K): 290.3 ± 1.5 J/K/mol | molar heat capacity at constant pressure (181.26 K): 292.5 ± 1.5 J/K/mol | molar heat capacity at constant pressure (184.73 K): 297.4 ± 1.5 J/K/mol | molar heat capacity at constant pressure (188.19 K): 302.5 ± 1.6 J/K/mol | molar heat capacity at constant pressure (190 K): 305.3 ± 1.6 J/K/mol | molar heat capacity at constant pressure (191.65 K): 307.8 ± 1.6 J/K/mol | molar heat capacity at constant pressure (195.06 K): 312.7 ± 1.6 J/K/mol | molar heat capacity at constant pressure (198.5 K): 318.2 ± 1.6 J/K/mol | molar heat capacity at constant pressure (200 K): 320.4 ± 1.7 J/K/mol | molar heat capacity at constant pressure (201.93 K): 323.6 ± 1.7 J/K/mol | molar heat capacity at constant pressure (205.36 K): 328.5 ± 1.7 J/K/mol | molar heat capacity at constant pressure (208.8 K): 333.1 ± 1.7 J/K/mol | molar heat capacity at constant pressure (210 K): 335.6 ± 1.7 J/K/mol | molar heat capacity at constant pressure (212.23 K): 338.2 ± 1.7 J/K/mol | molar heat capacity at constant pressure (215.66 K): 343.7 ± 1.8 J/K/mol | molar heat capacity at constant pressure (219.09 K): 349.3 ± 1.8 J/K/mol | molar heat capacity at constant pressure (220 K): 350.7 ± 1.8 J/K/mol | molar heat capacity at constant pressure (222.53 K): 355 ± 1.8 J/K/mol | molar heat capacity at constant pressure (225.95 K): 361 ± 1.9 J/K/mol | molar heat capacity at constant pressure (229.38 K): 364.2 ± 1.9 J/K/mol | molar heat capacity at constant pressure (230 K): 365.9 ± 1.9 J/K/mol | molar heat capacity at constant pressure (232.82 K): 370.1 ± 1.9 J/K/mol | molar heat capacity at constant pressure (236.24 K): 375.2 ± 1.9 J/K/mol | molar heat capacity at constant pressure (239.67 K): 380.7 ± 2 J/K/mol | molar heat capacity at constant pressure (240 K): 381.1 ± 2 J/K/mol | molar heat capacity at constant pressure (243.1 K): 385.9 ± 2 J/K/mol | molar heat capacity at constant pressure (246.53 K): 391.1 ± 2 J/K/mol | molar heat capacity at constant pressure (249.92 K): 396.2 ± 2 J/K/mol | molar heat capacity at constant pressure (250 K): 396.3 ± 2 J/K/mol | molar heat capacity at constant pressure (253.35 K): 401.5 ± 2.1 J/K/mol | molar heat capacity at constant pressure (256.77 K): 406.9 ± 2.1 J/K/mol | molar heat capacity at constant pressure (260 K): 411.6 ± 2.1 J/K/mol | molar heat capacity at constant pressure (260.19 K): 412 ± 2.1 J/K/mol | molar heat capacity at constant pressure (263.6 K): 417.5 ± 2.1 J/K/mol | molar heat capacity at constant pressure (267.02 K): 422.9 ± 2.2 J/K/mol | molar heat capacity at constant pressure (270 K): 427.1 ± 2.2 J/K/mol | molar heat capacity at constant pressure (270.43 K): 428.4 ± 2.2 J/K/mol | molar heat capacity at constant pressure (273.84 K): 432.9 ± 2.2 J/K/mol | molar heat capacity at constant pressure (277.25 K): 438.4 ± 2.2 J/K/mol | molar heat capacity at constant pressure (280 K): 442.9 ± 2.3 J/K/mol | molar heat capacity at constant pressure (280.64 K): 443.7 ± 2.3 J/K/mol | molar heat capacity at constant pressure (284.03 K): 449 ± 2.3 J/K/mol | molar heat capacity at constant pressure (287.42 K): 454 ± 2.3 J/K/mol | molar heat capacity at constant pressure (290 K): 458.9 ± 2.3 J/K/mol | molar heat capacity at constant pressure (290.79 K): 460.1 ± 2.3 J/K/mol | molar heat capacity at constant pressure (294.15 K): 465.4 ± 2.4 J/K/mol | molar heat capacity at constant pressure (297.51 K): 471.2 ± 2.4 J/K/mol | molar heat capacity at constant pressure (298.15 K): 472.1 ± 2.4 J/K/mol | molar heat capacity at constant pressure (300 K): 475.1 ± 2.4 J/K/mol | molar heat capacity at constant pressure (300.85 K): 475.9 ± 2.4 J/K/mol | molar heat capacity at constant pressure (304.09 K): 481.9 ± 2.4 J/K/mol | molar heat capacity at constant pressure (307.42 K): 487.8 ± 2.5 J/K/mol | molar heat capacity at constant pressure (310 K): 491.2 ± 2.5 J/K/mol | molar heat capacity at constant pressure (310.76 K): 492.9 ± 2.5 J/K/mol | molar heat capacity at constant pressure (314.09 K): 498.1 ± 2.5 J/K/mol | molar heat capacity at constant pressure (317.42 K): 503 ± 2.5 J/K/mol | molar heat capacity at constant pressure (320 K): 507 ± 2.6 J/K/mol | molar heat capacity at constant pressure (320.76 K): 508 ± 2.6 J/K/mol | molar heat capacity at constant pressure (324.1 K): 513.3 ± 2.6 J/K/mol | molar heat capacity at constant pressure (327.44 K): 518.2 ± 2.6 J/K/mol | molar heat capacity at constant pressure (330 K): 522.5 ± 2.6 J/K/mol | molar heat capacity at constant pressure (330.78 K): 523.9 ± 2.7 J/K/mol | molar heat capacity at constant pressure (334.13 K): 529 ± 2.7 J/K/mol | molar heat capacity at constant pressure (337.48 K): 534 ± 2.7 J/K/mol | molar heat capacity at constant pressure (340 K): 538.4 ± 2.7 J/K/mol | molar heat capacity at constant pressure (340.82 K): 539.6 ± 2.7 J/K/mol | molar heat capacity at constant pressure (344.16 K): 545.9 ± 2.8 J/K/mol | molar heat capacity at constant pressure (347.5 K): 551.7 ± 2.8 J/K/mol | molar heat capacity at constant pressure (350 K): 556.8 ± 2.8 J/K/mol | molar heat capacity at constant pressure (350.09 K): 556.9 ± 2.8 J/K/mol
